PMC12696368, “Ancestral Chaperonins Provide the First Structural Glimpse into Early Multimeric Protein Evolution” (Molecular Biology and Evolution, 2025)

How the values were obtained:
Assay in all cases: phosphate release (BIOMOL GREEN), […]-60 °C
Assay type in all cases: biochemical
Details in all cases: 0.5 mM ATP, 5 mM MgCl2, 150 mM KCl, 50 mM HEPES pH 7.4
AFCB = target: T1, AFCB (synthetic construct, UniProt Z9BU06U866)
T1 construct: ancestral reconstruction, C-terminal His-tag, expressed in E. coli BL21 (DE3); 7-subunit double rings

E. coli GroEL = target: T2, E. coli GroEL (Escherichia coli, UniProt P0A6F5)
T2 construct: recombinant, expressed and purified as the ancestral proteins (C-terminal His-tag, E. coli BL21 (DE3)); no GroES; double ring of two seven-subunit rings
T2 sequence (P0A6F5 2-548): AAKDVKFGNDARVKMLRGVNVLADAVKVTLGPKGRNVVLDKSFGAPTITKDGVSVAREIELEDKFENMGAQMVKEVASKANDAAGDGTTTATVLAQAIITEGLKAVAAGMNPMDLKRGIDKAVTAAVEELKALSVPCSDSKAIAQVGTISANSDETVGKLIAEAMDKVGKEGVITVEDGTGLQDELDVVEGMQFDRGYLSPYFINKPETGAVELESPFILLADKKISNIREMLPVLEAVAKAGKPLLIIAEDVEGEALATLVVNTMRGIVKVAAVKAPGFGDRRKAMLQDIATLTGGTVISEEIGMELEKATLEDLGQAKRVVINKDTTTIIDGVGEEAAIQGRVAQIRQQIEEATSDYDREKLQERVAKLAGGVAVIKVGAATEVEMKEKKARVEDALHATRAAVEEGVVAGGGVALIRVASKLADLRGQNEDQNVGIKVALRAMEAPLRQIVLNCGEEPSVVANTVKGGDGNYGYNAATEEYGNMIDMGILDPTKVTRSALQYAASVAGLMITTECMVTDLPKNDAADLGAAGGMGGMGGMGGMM

ACIII = target: T3, ACIII (synthetic construct, UniProt Z9ZN04QL74)
T3 construct: ancestral reconstruction, C-terminal His-tag, expressed in E. coli BL21 (DE3); eight-subunit double rings
T3 sequence (Z9ZN04QL74 1-518): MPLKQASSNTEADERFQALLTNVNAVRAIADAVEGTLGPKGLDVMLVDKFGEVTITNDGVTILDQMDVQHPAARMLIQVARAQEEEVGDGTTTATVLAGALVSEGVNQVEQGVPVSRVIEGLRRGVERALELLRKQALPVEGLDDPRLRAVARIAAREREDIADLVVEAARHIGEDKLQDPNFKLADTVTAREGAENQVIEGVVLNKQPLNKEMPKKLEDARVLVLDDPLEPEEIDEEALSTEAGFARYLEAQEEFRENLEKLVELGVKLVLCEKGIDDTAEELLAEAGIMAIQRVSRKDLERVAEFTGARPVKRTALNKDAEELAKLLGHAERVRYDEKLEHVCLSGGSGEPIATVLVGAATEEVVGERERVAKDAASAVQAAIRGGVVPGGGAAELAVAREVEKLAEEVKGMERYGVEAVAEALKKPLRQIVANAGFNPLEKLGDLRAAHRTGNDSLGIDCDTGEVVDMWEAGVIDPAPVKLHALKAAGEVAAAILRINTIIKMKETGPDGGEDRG

ACI = target: T4, ACI (synthetic construct, UniProt Z9T0T8YL69)
T4 construct: ancestral reconstruction, C-terminal His-tag, expressed in E. coli BL21 (DE3); single heptameric ring

Nc1ncnc2c1ncn2[C@@H]1O[C@H](COP(=O)(O)OP(=O)(O)OP(=O)(O)O)[C@@H](O)[C@H]1O [ATP]
phosphate release (BIOMOL GREEN), 30-60 °C (AFCB): showed the highest rate of ATP hydrolysis, followed by AFCB | phosphate release (BIOMOL GREEN), 30-60 °C (E. coli GroEL): E. coli GroEL, ACI and ACIII exhibited similar hydrolysis patterns | phosphate release (BIOMOL GREEN), 30-60 °C (ACIII): E. coli GroEL, ACI and ACIII exhibited similar hydrolysis patterns | phosphate release (BIOMOL GREEN), 30-60 °C (ACI): E. coli GroEL, ACI and ACIII exhibited similar hydrolysis patterns
